From US5776970A, “Tryptophan derivatives as protein tyrosine kinase blockers and their use in the treatment of neoplastic diseases” (Yeda Research and Development Co. Ltd., priority 1994, dated 1998)
pIC50: −log10 of the molar value. In brackets after ≈: the same amount, converted by molar mass.

Legend:
[1] = test system: isoproterenol-mediated lipolysis; experiment: isoproterenol-mediated lipolysis in rat adipocytes (glycerol release); assay type: cell-based
Method: In general there are two classes of protein kinases (PKs) in mammalian tissues: (a) PKs which phosphorylate tyrosine moieties in proteins (to phosphotyrosine), and (b) PKs which phosphorylate serine and threonine moieties (to phosphoserine and phosphotreonine). […] An example for such a metabolic effect is lipolysis which depends on protein kinase A. Rat adipocytes (prepared by the method of Rodbell, 1964) were incubated with isoproterenol alone (1 μM) or isoproterenol with CBZ-DNPS-TRP-TAU (200 μM) for one hour at 37° C. The amount of glycerol released from the cells was then determined by spectroscopic procedure (Shechter, 1982).

[2] = target: insulin receptor tyrosine kinase (InsRTK) (Rattus norvegicus, UniProt P15127); experiment: PolyGlu4 Tyr phosphorylation by partially purified (wheat-germ-agglutinin purified) rat liver insulin receptor, cell-free; assay type: biochemical; parameters: wheat-germ-agglutinin purified rat liver insulin receptor; from tissue; host or cells: rat liver (wheat-germ-agglutinin purified)
Method: An assay of PolyGlu4 Tyr phosphorylation by partially purified insulin receptor was run for 30 min at 22° C. in 60 μl of 50 mM Hepes (pH 7.4)-0.1% Triton X-100 containing wheat-germ-agglutinin purified rat liver insulin receptor (1 μg protein), MgCl2 25 mM; MnCl2, 1 mM, ATP 17 μM, insulin 0.1 μM, PolyGlu4 Tyr, 0.17 mg/ml and the indicated concentrations in FIG. 1 of CBZ-DNPS-TRP-TAU. Phosphotyrosine content in PolyGlu4 Tyr was determined by a radioimmunoassay procedure (Shisheva et al., 1991). […] The inhibitory potency of other derivatives of formula I on InsRTK-catalyzed PolyGlu4 Tyr phosphorylation in cell-free experiments was determined. […] For comparison, the IC50 values for AC-TRP-TAU and L-tryptophan are 5 mM and >30 mM, respectively.
(§1) Various derivatives according to the invention in which R^1 is benzyloxycarbonyl (CBZ) or t-butoxycarbonyl (t-Boc), R^2 is --SO3 H or --PO3 H, n is 1,2 or 3, and R^3 is H, 2-nitrophenylthio (NPS) or 2,4-dinitrophenylthio (DNPS) were prepared and examined in cell-free and intact cell systems. The cell-free assay is PolyGlu4 Tyr phosphorylation by partially purified insulin receptor as described in Example 3. The assay in intact cells (namely, lipogenesis) was carried out as described in Example 4.

[3] = test system: vanadate-stimulated lipogenesis in rat adipocytes; experiment: vanadate-stimulated lipogenesis in rat adipocytes; assay type: cell-based; conditions: Adipocyte, intact rat adipocytes, read-out: IC50, insulin-like effects of vanadate ions (lipogenesis)
[4] = test system: rat adipocytes; experiment: permeability into cell interiors (intact cell system, lipogenesis); assay type: cell-based; conditions: graded in words
Method: Rat adipocytes were prepared essentially by the method of Rodbell, 1964. The fat pads of three rats were cut into small pieces with scissors and digested in 3 ml of Krebs-Ringer-Bicarbonate (KRB)-buffer containing 0.7% bovine serum albumin (BSA) (pH 7.4) with collagenase (1 mg/ml). The digestion was performed in a 25 ml flexible plastic bottle under an atmosphere of carbogen (95% O2, 5% CO2) for 40 min at 37° C. with vigorous shaking. Five ml of buffer was then added, and the cells were squeezed through a mesh screen. The cells were then allowed to stand for several minutes (in a 15 ml plastic test tube at room temperature, floating) and the buffer underneath was removed. This procedure (suspension, floating and removal of buffer underneath) was repeated three times. For [^14 C-U]glucose incorporation (lipogenesis), the fat cell suspensions (3×10^5 cells/ml) were divided into plastic vials (0.5 ml per vial) and incubated for 60 min at 37° C. under an atmosphere of 95% O2, 5% CO2, with 0.2 mM [U-^14 C]glucose, in either the presence or absence of insulin (100 ng/ml) and the indicated concentrations in FIG. 2 of CBZ-DNPS-TRP-TAU. The reaction was terminated by adding toluene-based scintillation fluid (1.0 ml per vial) and the extracted lipids were counted (Shechter and Karlish, 1980). Fat cell suspensions were pre-incubated for 20 min at 37° C. with increasing concentrations of the inhibitors. Results are expressed in FIG. 2 as the percent of maximal stimulation at the indicated concentrations of inhibitors. In all experiments insulin-stimulated lipogenesis was 4- to 5-fold higher than basal; basal ~2000 cpm per 3×10^5 cells/h; Vinsulin 8000-10,000 cpm per 3×10^5 cells/h.
as §1

[5] = solubility
[6] = test system: murine T-cell lymphoma (LB3); experiment: insulin-dependent proliferation of murine T-cell lymphoma (LB3), thymidine incorporation; assay type: cell-based
Method: (§2) LB cells were removed from the peritoneal cavity of BALB/c mice, washed and resuspended in RPMI-1640. Then a continuous line designated LB3 was established in "LB medium" (50% RPMI-1640 plus 50% DCCM-1 in 10% fetal calf serum (FCS)). The LB3 cells were incubated (37° C., 5% CO2) in microplate wells (Nunc, Roskilde, Denmark) with 0.2 ml RPMI-1640 alone and in the same medium containing insulin, fetal calf serum (FCS) or both, and different concentrations of the compound CBZ-DNPS-TRP-TAU as indicated in FIG. 3. Proliferation capacity was determined by thymidine incorporation (^3 H-TdR, 1 μCi/well, specific activity 5 Ci/mM), added to the cells 24 hours later. In a typical experiment, cpm of ^3 H-thymidine incorporated into 30,000 cells was 12-14 fold higher in the presence of insulin or other mitogens than in their absence.

[7] = test system: insulin-stimulated lipogenesis in rat adipocytes; experiment: insulin-stimulated lipogenesis in rat adipocytes ([U-14C]glucose incorporation); assay type: cell-based; conditions: Adipocyte; intact rat adipocytes; insulin 100 ng/ml; 20 min pre-incubation, 60 min at 37° C.; read-out: IC50, insulin-dependent lipogenesis
Method: The fat pads of three rats were cut into small pieces with scissors and digested in 3 ml of Krebs-Ringer-Bicarbonate (KRB)-buffer containing 0.7% bovine serum albumin (BSA) (pH 7.4) with collagenase (1 mg/ml). […] Five ml of buffer was then added, and the cells were squeezed through a mesh screen. The cells were then allowed to stand for several minutes (in a 15 ml plastic test tube at room temperature, floating) and the buffer underneath was removed. This procedure (suspension, floating and removal of buffer underneath) was repeated three times. […] Fat cell suspensions were pre-incubated for 20 min at 37° C. with increasing concentrations of the inhibitors. Results are expressed in FIG. 2 as the percent of maximal stimulation at the indicated concentrations of inhibitors.

[8] = test system: LB3 cells; experiment: LB3 cell proliferation in response to various mitogens (IL-2, growth hormone, PMA); assay type: cell-based, murine
Method: as §2
Experimental conditions were as described in Example 6 except that lower concentrations of mitogens were applied here (those triggering 50% of maximal proliferation): insulin, interleukin-2 (IL-2), growth hormone and PMA. PMA is an activator of protein kinase C. Protein kinase C in this cell type triggers proliferation by a pathway which is only partially dependent on endogenous tyrosine phosphorylation.

Chain of insulin receptor tyrosine kinase (InsRTK) (P15127 764-1383 limits assumed): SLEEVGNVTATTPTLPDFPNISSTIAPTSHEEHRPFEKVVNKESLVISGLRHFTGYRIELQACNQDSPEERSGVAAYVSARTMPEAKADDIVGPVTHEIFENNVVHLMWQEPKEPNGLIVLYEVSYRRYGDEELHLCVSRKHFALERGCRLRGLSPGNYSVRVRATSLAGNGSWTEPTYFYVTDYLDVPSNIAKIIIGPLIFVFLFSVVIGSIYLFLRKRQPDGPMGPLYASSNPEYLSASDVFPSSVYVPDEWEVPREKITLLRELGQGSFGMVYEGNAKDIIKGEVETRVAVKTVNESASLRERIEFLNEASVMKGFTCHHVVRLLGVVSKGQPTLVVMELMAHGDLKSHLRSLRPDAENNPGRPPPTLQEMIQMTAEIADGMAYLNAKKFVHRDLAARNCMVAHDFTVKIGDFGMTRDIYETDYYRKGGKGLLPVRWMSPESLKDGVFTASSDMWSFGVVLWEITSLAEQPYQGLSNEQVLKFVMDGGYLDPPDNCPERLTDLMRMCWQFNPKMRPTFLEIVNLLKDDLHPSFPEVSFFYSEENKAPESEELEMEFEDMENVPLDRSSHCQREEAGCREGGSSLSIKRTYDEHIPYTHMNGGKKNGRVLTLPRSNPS
Chain of insulin receptor tyrosine kinase (InsRTK) (P15127 27-759 partner limits assumed): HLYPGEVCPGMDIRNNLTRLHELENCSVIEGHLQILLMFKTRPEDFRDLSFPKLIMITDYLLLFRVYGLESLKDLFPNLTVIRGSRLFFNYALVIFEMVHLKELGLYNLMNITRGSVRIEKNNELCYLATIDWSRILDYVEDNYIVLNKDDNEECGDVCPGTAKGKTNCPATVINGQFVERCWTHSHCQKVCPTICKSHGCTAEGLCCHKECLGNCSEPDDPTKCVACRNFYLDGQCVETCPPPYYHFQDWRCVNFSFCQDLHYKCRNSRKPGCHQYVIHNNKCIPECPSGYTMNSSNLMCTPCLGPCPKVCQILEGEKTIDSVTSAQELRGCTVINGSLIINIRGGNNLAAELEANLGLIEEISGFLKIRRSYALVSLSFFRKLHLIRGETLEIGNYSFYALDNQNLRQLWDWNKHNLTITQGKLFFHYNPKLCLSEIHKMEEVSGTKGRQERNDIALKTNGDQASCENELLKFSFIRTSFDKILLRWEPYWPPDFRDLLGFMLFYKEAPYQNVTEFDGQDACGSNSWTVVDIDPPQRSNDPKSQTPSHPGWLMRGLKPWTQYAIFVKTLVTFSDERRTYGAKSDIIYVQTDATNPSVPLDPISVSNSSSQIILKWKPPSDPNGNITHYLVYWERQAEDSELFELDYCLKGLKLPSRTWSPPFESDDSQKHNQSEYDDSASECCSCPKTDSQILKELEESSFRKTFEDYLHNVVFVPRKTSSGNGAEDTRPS

O=C(N[C@@H](Cc1c(Sc2ccc([N+](=O)[O-])cc2[N+](=O)[O-])[nH]c2ccccc12)C(=O)NCCS(=O)(=O)O)OCc1ccccc1 [CBZ-DNPS-TRP-TAU]
effect in inhibiting isoproterenol-mediated lipolysis ([1]; 200 μM, isoproterenol 1 μM, one hour at 37° C.): negligible effect
Amount of glycerol released ([1]; CBZ-DNPS-TRP-TAU 200 μM plus isoproterenol 1 μM): 154 nmol/3 × 10^5 cells/3 h
activity at 200 µM ([1]; Rattus norvegicus, Adipocyte, CBZ-DNPS-TRP-TAU 200 μM plus isoproterenol 1 μM, read-out: Percent lipolysis): 93%
pIC50 [2]: 3.89
pIC50 [3]: 4.35
Permeability into cell interiors [4]: excellent
solubility ([5]; dmf, organic solvent or mixture): 20 mM (≈ 12.9 mg/mL)
solubility ([5]; dmso, organic solvent or mixture): 20 mM (≈ 12.9 mg/mL)
solubility ([5]; water): ≤ 2 mM
concentration range lower than that required to inhibit normal metabolic biological effects of insulin ([6]; LB3 proliferation vs lipogenesis in rat adipocytes (FIG. 2)): ~200 times
pIC50 ([6]; Mus musculus, T-cell, LB3, insulin-dependent, thymidine added 24 hours later): 6.02
pIC50 [7]: 3.77
inhibition of IL-2-dependent proliferation of the T-cell lymphoma ([8]; IL-2 at 50% of maximal proliferation): blocks
inhibition of protein kinase C-dependent proliferation ([8]; PMA at 50% of maximal proliferation): at significantly higher concentrations
inhibition of growth hormone-dependent proliferation of the T-cell lymphoma ([8]; growth hormone at 50% of maximal proliferation): blocks
